Toxic doses and inconclusive results are not listed.
Test system: P388 leukemia ip, CD2F1 mice, survival T/C
Experiment: NCI In Vivo Anticancer Drug Screen. Data for tumor model P388 Leukemia (intraperitoneal) in CD2F1 (CDF1) mice
Settings: endpoint: median survival time, higher = longer survival
Method in brief: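 Mice carrying the transplanted tumor received test compound or vehicle. Survival was recorded in each group, and the value is the treated-group measurement divided by that of the vehicle-treated control group.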

[1] = dose: 6.25 mg/kg/injection, schedule: Q01DX009 (ip), vehicle: saline with Tween-80
[2] = dose: 12.5 mg/kg/injection, schedule: Q01DX009 (ip), vehicle: saline with Tween-80
[3] = dose: 25.0 mg/kg/injection, schedule: Q01DX009 (ip), vehicle: saline with Tween-80
[4] = dose: 50.0 mg/kg/injection, schedule: Q01DX009 (ip), vehicle: saline with Tween-80
[5] = dose: 25.0 mg/kg/injection, schedule: Q01DX009 (ip), vehicle: other
[6] = dose: 60.0 mg/kg/injection, schedule: Q01DX005 (ip), vehicle: saline with Tween-80
[7] = dose: 120.0 mg/kg/injection, schedule: Q01DX005 (ip), vehicle: saline with Tween-80
[8] = dose: 240.0 mg/kg/injection, schedule: Q01DX005 (ip), vehicle: saline with Tween-80
[9] = dose: 60.0 mg/kg/injection, schedule: Q01DX005 (ip), vehicle: Klucel (hydroxypropylcellulose) (HPC)
[10] = dose: 120.0 mg/kg/injection, schedule: Q01DX005 (ip), vehicle: Klucel (hydroxypropylcellulose) (HPC)
[11] = dose: 100.0 mg/kg/injection, schedule: Q01DX001 (ip), vehicle: saline with Tween-80
[12] = dose: 200.0 mg/kg/injection, schedule: Q01DX001 (ip), vehicle: saline with Tween-80
[13] = dose: 50.0 mg/kg/injection, schedule: Q01DX005 (ip), vehicle: saline with Tween-80
[14] = dose: 100.0 mg/kg/injection, schedule: Q01DX005 (ip), vehicle: saline with Tween-80
[15] = dose: 200.0 mg/kg/injection, schedule: Q01DX005 (ip), vehicle: saline with Tween-80
[16] = dose: 50.0 mg/kg/injection, schedule: Q01DX005 (ip), vehicle: Klucel (hydroxypropylcellulose) (HPC)
[17] = dose: 100.0 mg/kg/injection, schedule: Q01DX005 (ip), vehicle: Klucel (hydroxypropylcellulose) (HPC)

O=C1C(=O)c2ccccc2-c2ccccc21
T/C [1]: 104 % of control | T/C [2]: 104 % of control | T/C [3]: 108 % of control | T/C [4]: 100 % of control

CCN1c2ccccc2CC(C#N)(CCN(C)C)c2ccccc21 (stereo not drawn)
T/C [2]: 100 % of control | T/C [3]: 99 % of control | T/C [4]: 104 % of control

COc1ccc(CC#N)c(OC)c1
T/C (dose: 12.5 mg/kg/injection, schedule: Q01DX009 (ip), vehicle: other): 102 % of control | T/C [5]: 102 % of control

c1ccc(N(c2ccccc2)c2nnnn2-c2ccccc2)cc1
T/C [3]: 98 % of control | T/C [4]: 94 % of control | T/C (dose: 100.0 mg/kg/injection, schedule: Q01DX009 (ip), vehicle: saline with Tween-80): 89 % of control

COC(OC)C(=O)OC(C)(C)C
T/C [6]: 103 % of control | T/C [7]: 100 % of control | T/C [8]: 101 % of control

CCNCc1c2c(O)c3c(O)c(C)c4c(c3c1O)C(=O)C(C)(O/C=C/C(OC)C(C)C(OC(C)=O)C(C)C(O)C(C)C(O)C(C)/C=C/C=C(/C)C(=O)N2)O4 (stereo not drawn)
T/C [5]: 89 % of control | T/C (dose: 50.0 mg/kg/injection, schedule: Q01DX009 (ip), vehicle: other): 89 % of control | T/C (dose: 100.0 mg/kg/injection, schedule: Q01DX009 (ip), vehicle: other): 89 % of control | T/C (dose: 200.0 mg/kg/injection, schedule: Q01DX009 (ip), vehicle: other): 89 % of control | T/C (dose: 400.0 mg/kg/injection, schedule: Q01DX009 (ip), vehicle: other): 90 % of control

C=C1C(=O)O[C@@H]2/C=C(\C)CC/C=C(/COC(C)=O)C[C@@H](OC(C)=O)[C@@H]12
T/C [1]: 97 % of control | T/C (dose: 9.0 mg/kg/injection, schedule: Q01DX009 (ip), vehicle: acetone): 106 % of control | T/C [2]: 103 % of control | T/C (dose: 18.0 mg/kg/injection, schedule: Q01DX009 (ip), vehicle: acetone): 106 % of control | T/C [3]: 106 % of control | T/C (dose: 36.0 mg/kg/injection, schedule: Q01DX009 (ip), vehicle: acetone): 109 % of control | T/C (dose: 72.0 mg/kg/injection, schedule: Q01DX009 (ip), vehicle: acetone): 124 % of control

CCOC(=O)C1C(=O)N2C(=O)C(NC(C)=O)=C(O)C2C1c1ccc(Cl)cc1 (stereo not drawn)
T/C (dose: 100.0 mg/kg/injection, schedule: Q04DX002 (ip), vehicle: saline with Tween-80): 100 % of control | T/C (dose: 200.0 mg/kg/injection, schedule: Q04DX002 (ip), vehicle: saline with Tween-80): 105 % of control | T/C (dose: 400.0 mg/kg/injection, schedule: Q04DX002 (ip), vehicle: saline with Tween-80): 98 % of control

C/C=C1\CC2(OC1=O)C(=O)NC(=O)NC2=O
T/C (dose: 50.0 mg/kg/injection, schedule: Q01DX009 (ip), vehicle: saline): 103 % of control | T/C (dose: 100.0 mg/kg/injection, schedule: Q01DX009 (ip), vehicle: saline): 94 % of control

Cc1ccc(S(=O)(=O)N2CCCN(S(=O)(=O)c3ccc(C)cc3)COC2)cc1
T/C [9]: 102 % of control | T/C [10]: 101 % of control | T/C (dose: 240.0 mg/kg/injection, schedule: Q01DX005 (ip), vehicle: Klucel (hydroxypropylcellulose) (HPC)): 102 % of control

CN=C1C=CC(=C(c2ccc(N(C)C)cc2)c2ccc(N(C)C)cc2)C=C1
T/C (dose: 6.25 mg/kg/injection, schedule: Q01DX005 (ip), vehicle: Klucel (hydroxypropylcellulose) (HPC)): 119 % of control

O=c1ccc2nc3ccccc3sc-2c1
T/C [2]: 90 % of control | T/C [3]: 104 % of control | T/C [4]: 109 % of control

COc1ccc2cc(C(=O)c3ccccc3)c(=O)oc2c1
T/C [6]: 93 % of control | T/C [7]: 96 % of control | T/C [8]: 96 % of control

Cc1ccccc1-c1nc2c(N)nc(N)nc2nc1N
T/C (dose: 100.0 mg/kg/injection, schedule: Q04DX003 (ip), vehicle: saline with Tween-80): 109 % of control | T/C (dose: 200.0 mg/kg/injection, schedule: Q01DX009 (ip), vehicle: saline with Tween-80): 172 % of control | T/C (dose: 200.0 mg/kg/injection, schedule: Q04DX003 (ip), vehicle: saline with Tween-80): 109 % of control | T/C (dose: 264.0 mg/kg/injection, schedule: Q04DX003 (ip), vehicle: saline with Tween-80): 113 % of control | T/C (dose: 300.0 mg/kg/injection, schedule: Q01DX009 (ip), vehicle: saline with Tween-80): 109 % of control | T/C (dose: 400.0 mg/kg/injection, schedule: Q04DX003 (ip), vehicle: saline with Tween-80): 113 % of control

COc1cc2c(c(OC)c1OC)-c1ccc(N)c(=O)cc1[C@@H](NC(C)=O)CC2
T/C (dose: 0.5 mg/kg/injection, schedule: Q01DX010 (ip), vehicle: saline): 109 % of control | T/C (dose: 1.0 mg/kg/injection, schedule: Q01DX010 (ip), vehicle: saline): 118 % of control | T/C (dose: 3.12 mg/kg/injection, schedule: Q01DX009 (ip), vehicle: Klucel (hydroxypropylcellulose) (HPC)): 86 % of control | T/C (dose: 6.25 mg/kg/injection, schedule: Q01DX009 (ip), vehicle: Klucel (hydroxypropylcellulose) (HPC)): 108 % of control

CC/S(=N\S(=O)(=O)c1ccc(C)cc1)c1cccc[n+]1[O-] (stereo not drawn)
T/C [6]: 100 % of control | T/C [7]: 110 % of control | T/C [8]: 100 % of control

CC(=O)OC1/C=C\CC/C=C\C1 (stereo not drawn)
T/C [6]: 99 % of control | T/C [7]: 102 % of control | T/C [8]: 103 % of control

C=C(C(=O)OC)C1C=CCCCC1 (stereo not drawn)
T/C [11]: 114 % of control | T/C [12]: 113 % of control | T/C (dose: 400.0 mg/kg/injection, schedule: Q01DX001 (ip), vehicle: saline with Tween-80): 105 % of control

O=[N+]([O-])CC(c1ccccc1)C(c1ccccc1)[N+](=O)[O-] (stereo not drawn)
T/C [13]: 90 % of control | T/C [14]: 93 % of control | T/C [15]: 112 % of control

O=[N+]([O-])c1ccc(N2c3ccccc3SC23CCCC3)c([N+](=O)[O-])c1
T/C [13]: 100 % of control | T/C [14]: 100 % of control | T/C [15]: 99 % of control

CC1(C)CC2([Si](C)(C)C)C(=O)NC(=O)NC12 (stereo not drawn)
T/C (dose: 12.5 mg/kg/injection, schedule: Q01DX005 (ip), vehicle: Klucel (hydroxypropylcellulose) (HPC)): 105 % of control | T/C (dose: 25.0 mg/kg/injection, schedule: Q01DX005 (ip), vehicle: Klucel (hydroxypropylcellulose) (HPC)): 99 % of control | T/C [16]: 99 % of control | T/C [17]: 97 % of control

COc1ccc(-c2nc(SCC(=O)O)n(-c3ccccn3)c2-c2ccc(OC)cc2)cc1
T/C (dose: 100.0 mg/kg/injection, schedule: Q01DX001 (ip), vehicle: water): 100 % of control | T/C (dose: 200.0 mg/kg/injection, schedule: Q01DX001 (ip), vehicle: water): 91 % of control

CCOc1ccc(-c2nc(Cl)nc(Cl)n2)c2ccccc12
T/C [9]: 104 % of control | T/C [10]: 111 % of control

Cc1ccc(-c2c(C)c3c(c(C)c2-c2ccc(C)cc2)-c2ccccc2C3=O)cc1
T/C (dose: 100.0 mg/kg/injection, schedule: Q04DX002 (ip), vehicle: saline): 100 % of control | T/C (dose: 200.0 mg/kg/injection, schedule: Q04DX002 (ip), vehicle: saline): 95 % of control

CC(=O)OCC1OC(Nc2[nH]c(=O)[nH]c(=O)c2N=O)C(OC(C)=O)C(OC(C)=O)C1OC(C)=O (stereo not drawn)
T/C (dose: 60.0 mg/kg/injection, schedule: Q01DX005 (ip), vehicle: saline): 111 % of control | T/C (dose: 120.0 mg/kg/injection, schedule: Q01DX005 (ip), vehicle: saline): 103 % of control | T/C (dose: 240.0 mg/kg/injection, schedule: Q01DX005 (ip), vehicle: saline): 103 % of control

Cn1c2c([N+](=O)[O-])cccc2c(=O)c2c(O)cc3c(c21)C=CC(C)(C)O3
T/C [11]: 108 % of control | T/C [12]: 110 % of control

O=[N+]([O-])c1ccccc1N=Nc1c(O)sc2ccccc12
T/C [16]: 98 % of control | T/C [17]: 96 % of control | T/C (dose: 200.0 mg/kg/injection, schedule: Q01DX005 (ip), vehicle: Klucel (hydroxypropylcellulose) (HPC)): 91 % of control

Cc1ccccc1NC(=O)OCCCl
T/C [6]: 100 % of control | T/C [7]: 100 % of control | T/C [8]: 97 % of control
